Reference: ChEMBL document CHEMBL4507268 (2021)

Assays:
Details in all cases: Compound concentration 1.0 uM
[1] = target: Insulin-like growth factor 1 receptor (Homo sapiens) (UniProt P08069)
[2] = target: T1, Serine/threonine-protein kinase TAO2 (Homo sapiens) (UniProt Q9UL54)
T1 sequence (whole entry): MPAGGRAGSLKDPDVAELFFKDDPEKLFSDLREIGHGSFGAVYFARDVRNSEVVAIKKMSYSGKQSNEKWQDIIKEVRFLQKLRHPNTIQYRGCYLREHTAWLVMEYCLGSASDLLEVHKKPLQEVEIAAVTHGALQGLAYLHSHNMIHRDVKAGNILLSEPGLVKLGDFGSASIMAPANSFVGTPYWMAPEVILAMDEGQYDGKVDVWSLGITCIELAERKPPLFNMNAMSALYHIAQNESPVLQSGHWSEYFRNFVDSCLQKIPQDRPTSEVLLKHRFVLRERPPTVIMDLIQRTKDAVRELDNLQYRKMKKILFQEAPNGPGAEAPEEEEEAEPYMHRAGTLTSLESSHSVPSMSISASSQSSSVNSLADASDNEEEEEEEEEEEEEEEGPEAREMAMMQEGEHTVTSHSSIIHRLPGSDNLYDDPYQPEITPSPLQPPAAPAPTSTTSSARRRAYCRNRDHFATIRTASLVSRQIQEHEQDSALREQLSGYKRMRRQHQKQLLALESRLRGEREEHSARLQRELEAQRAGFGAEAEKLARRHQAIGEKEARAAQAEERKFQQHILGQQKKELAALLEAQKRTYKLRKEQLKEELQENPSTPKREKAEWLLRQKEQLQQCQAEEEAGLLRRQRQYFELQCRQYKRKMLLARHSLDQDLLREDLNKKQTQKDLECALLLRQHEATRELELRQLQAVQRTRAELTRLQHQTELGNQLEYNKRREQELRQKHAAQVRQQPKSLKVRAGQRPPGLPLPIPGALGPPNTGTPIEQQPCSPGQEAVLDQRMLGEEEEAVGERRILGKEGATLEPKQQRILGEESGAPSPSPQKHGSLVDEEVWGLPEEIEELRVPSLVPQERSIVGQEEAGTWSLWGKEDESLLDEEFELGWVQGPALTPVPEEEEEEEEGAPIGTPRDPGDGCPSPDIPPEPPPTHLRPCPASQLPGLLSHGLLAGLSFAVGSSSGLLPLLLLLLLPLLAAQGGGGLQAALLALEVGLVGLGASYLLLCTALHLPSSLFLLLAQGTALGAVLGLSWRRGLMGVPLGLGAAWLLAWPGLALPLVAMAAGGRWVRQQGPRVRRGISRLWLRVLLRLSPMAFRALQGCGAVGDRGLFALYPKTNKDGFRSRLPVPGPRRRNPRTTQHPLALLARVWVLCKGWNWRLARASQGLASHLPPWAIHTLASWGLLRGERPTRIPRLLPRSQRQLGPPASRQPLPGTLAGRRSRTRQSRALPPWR

[3] = target: Serine/threonine-protein kinase SBK1 (Homo sapiens) (UniProt Q52WX2)
[4] = target: Cyclin-dependent kinase 5/CDK5 activator 1 (Homo sapiens) (UniProt Q00535+Q15078)
[5] = target: T2, Discoidin domain-containing receptor 2 (Homo sapiens) (UniProt Q16832)
T2 sequence (whole entry): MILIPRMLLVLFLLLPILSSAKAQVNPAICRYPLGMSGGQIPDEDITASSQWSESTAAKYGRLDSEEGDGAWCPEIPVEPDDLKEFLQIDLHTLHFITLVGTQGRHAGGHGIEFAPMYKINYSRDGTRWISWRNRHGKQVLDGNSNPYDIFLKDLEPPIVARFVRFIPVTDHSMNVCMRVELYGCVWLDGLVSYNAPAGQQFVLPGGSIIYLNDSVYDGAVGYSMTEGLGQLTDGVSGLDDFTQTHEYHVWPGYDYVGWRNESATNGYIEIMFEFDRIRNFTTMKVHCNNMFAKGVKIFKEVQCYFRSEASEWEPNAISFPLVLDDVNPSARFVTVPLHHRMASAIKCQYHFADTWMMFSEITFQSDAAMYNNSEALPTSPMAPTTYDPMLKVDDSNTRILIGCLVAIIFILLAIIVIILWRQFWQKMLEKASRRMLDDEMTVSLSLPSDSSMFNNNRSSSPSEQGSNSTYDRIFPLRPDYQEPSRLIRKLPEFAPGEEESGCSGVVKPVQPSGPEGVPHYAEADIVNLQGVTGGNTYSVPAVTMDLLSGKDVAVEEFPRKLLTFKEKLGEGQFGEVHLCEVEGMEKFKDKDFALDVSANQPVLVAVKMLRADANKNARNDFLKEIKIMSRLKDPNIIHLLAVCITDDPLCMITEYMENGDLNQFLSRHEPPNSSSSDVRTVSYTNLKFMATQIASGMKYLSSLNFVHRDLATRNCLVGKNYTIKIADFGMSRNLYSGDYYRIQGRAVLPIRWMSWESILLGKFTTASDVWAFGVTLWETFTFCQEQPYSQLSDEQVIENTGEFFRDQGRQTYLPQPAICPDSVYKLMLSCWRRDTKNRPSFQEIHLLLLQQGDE

[6] = target: Phosphatidylinositol 4-phosphate 3-kinase C2 domain-containing subunit alpha (Homo sapiens) (UniProt O00443)
[7] = target: T3, Dual specificity mitogen-activated protein kinase kinase 6 (Homo sapiens) (UniProt P52564)
T3 sequence (whole entry): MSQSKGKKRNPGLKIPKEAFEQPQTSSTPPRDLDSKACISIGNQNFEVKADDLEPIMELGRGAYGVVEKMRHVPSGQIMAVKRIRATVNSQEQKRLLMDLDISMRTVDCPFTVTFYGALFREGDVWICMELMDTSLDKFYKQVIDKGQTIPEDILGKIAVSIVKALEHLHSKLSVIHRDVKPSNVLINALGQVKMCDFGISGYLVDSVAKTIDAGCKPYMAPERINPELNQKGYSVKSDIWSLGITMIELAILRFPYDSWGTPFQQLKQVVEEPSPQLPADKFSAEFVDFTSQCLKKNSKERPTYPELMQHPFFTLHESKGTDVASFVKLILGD

Measured: % residual kinase activity

Chain of Phosphatidylinositol 4-phosphate 3-kinase C2 domain-containing subunit alpha (Homo sapiens) (O00443 whole entry, the tested form may be a part): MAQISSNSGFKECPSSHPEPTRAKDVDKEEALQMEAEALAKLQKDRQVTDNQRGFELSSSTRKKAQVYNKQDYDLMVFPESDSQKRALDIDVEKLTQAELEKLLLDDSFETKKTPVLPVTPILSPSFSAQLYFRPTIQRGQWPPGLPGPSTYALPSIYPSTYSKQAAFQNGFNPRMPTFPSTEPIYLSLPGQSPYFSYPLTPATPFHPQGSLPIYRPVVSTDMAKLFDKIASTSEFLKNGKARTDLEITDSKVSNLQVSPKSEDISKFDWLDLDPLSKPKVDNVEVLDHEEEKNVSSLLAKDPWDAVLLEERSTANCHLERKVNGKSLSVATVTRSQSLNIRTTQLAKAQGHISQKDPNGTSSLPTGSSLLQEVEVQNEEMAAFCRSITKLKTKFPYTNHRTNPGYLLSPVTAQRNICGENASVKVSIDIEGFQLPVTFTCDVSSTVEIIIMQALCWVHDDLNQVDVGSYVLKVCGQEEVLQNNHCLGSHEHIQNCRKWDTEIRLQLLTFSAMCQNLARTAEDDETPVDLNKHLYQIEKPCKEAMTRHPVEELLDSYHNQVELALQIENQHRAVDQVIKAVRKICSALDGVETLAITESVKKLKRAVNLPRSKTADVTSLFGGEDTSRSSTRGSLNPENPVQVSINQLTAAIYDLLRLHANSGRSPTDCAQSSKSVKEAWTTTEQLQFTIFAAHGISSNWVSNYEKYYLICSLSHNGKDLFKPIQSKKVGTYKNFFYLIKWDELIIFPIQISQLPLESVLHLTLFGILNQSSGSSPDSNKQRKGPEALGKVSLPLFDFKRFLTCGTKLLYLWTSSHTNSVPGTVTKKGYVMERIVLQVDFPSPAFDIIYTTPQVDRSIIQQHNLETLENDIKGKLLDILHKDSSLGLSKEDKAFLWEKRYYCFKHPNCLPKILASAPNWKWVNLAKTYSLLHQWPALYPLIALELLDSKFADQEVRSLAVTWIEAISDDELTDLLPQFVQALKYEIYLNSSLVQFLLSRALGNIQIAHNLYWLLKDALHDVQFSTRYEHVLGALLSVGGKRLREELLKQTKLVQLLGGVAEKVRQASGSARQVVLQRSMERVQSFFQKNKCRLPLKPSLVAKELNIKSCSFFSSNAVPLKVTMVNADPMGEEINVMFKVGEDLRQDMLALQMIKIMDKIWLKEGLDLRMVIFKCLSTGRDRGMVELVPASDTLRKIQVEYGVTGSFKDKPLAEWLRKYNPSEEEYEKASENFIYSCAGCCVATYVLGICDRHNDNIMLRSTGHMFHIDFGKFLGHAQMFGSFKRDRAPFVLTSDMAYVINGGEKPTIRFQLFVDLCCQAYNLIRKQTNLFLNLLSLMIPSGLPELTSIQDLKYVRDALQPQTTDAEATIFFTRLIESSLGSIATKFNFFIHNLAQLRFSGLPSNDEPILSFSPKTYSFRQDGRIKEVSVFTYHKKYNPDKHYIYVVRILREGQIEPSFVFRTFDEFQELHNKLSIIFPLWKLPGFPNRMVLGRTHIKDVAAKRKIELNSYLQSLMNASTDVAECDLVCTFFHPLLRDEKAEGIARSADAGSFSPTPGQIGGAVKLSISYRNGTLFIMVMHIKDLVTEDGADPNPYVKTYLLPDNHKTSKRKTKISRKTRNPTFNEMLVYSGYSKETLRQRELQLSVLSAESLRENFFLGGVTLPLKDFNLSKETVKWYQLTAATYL
Chain of Cyclin-dependent kinase 5/CDK5 activator 1 (Homo sapiens) (Q00535 whole entry, the tested form may be a part): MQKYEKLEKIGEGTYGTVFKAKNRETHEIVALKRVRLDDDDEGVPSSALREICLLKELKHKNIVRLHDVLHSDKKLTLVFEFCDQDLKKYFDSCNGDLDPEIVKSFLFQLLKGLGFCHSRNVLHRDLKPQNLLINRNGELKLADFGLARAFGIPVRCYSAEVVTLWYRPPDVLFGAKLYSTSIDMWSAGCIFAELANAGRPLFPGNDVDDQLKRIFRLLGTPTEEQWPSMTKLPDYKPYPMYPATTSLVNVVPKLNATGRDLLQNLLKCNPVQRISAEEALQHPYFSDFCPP
Chain of Cyclin-dependent kinase 5/CDK5 activator 1 (Homo sapiens) (Q15078 99-307 partner limits assumed): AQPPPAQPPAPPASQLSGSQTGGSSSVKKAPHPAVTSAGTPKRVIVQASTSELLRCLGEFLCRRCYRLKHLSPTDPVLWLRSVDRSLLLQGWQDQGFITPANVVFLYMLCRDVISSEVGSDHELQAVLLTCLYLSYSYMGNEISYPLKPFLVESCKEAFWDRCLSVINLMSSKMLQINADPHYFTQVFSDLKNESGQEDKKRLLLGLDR
Chain of Insulin-like growth factor 1 receptor (Homo sapiens) (P08069 31-736 limits assumed): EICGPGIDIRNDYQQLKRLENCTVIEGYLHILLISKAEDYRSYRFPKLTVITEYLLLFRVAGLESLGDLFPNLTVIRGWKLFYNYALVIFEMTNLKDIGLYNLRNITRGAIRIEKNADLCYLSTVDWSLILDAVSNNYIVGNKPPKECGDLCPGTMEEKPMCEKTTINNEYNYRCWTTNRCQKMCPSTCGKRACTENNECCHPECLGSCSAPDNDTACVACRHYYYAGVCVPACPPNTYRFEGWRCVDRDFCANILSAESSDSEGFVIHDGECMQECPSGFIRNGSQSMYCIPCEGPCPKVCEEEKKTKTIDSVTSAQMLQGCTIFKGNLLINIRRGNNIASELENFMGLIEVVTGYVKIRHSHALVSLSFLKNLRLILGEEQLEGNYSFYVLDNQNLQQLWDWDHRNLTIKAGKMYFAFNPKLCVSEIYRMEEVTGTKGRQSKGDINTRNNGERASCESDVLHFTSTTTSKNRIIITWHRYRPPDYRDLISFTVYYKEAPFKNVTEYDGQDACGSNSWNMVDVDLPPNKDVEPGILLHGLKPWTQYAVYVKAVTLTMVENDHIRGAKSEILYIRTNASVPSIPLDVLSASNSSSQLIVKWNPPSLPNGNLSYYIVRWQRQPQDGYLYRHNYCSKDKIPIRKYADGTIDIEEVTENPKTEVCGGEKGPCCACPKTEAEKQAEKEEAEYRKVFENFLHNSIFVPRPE
Chain of Insulin-like growth factor 1 receptor (Homo sapiens) (P08069 741-1367 limits assumed): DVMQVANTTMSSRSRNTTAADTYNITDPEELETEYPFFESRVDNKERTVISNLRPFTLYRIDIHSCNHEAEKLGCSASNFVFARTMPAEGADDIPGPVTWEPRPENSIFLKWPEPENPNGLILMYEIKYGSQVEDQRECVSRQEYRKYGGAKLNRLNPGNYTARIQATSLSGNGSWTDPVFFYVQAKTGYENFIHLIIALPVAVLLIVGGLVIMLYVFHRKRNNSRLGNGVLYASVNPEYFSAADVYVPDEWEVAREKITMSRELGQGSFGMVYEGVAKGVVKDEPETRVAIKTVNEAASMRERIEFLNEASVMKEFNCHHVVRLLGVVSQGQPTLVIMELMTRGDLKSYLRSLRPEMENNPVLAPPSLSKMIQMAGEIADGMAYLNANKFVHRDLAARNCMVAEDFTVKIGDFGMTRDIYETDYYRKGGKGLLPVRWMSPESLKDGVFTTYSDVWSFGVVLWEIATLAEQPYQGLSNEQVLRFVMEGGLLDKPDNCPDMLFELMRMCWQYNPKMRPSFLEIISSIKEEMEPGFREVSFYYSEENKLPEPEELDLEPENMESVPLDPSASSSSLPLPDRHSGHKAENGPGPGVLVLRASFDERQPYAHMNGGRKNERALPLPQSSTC
Chain of Serine/threonine-protein kinase SBK1 (Homo sapiens) (Q52WX2 whole entry): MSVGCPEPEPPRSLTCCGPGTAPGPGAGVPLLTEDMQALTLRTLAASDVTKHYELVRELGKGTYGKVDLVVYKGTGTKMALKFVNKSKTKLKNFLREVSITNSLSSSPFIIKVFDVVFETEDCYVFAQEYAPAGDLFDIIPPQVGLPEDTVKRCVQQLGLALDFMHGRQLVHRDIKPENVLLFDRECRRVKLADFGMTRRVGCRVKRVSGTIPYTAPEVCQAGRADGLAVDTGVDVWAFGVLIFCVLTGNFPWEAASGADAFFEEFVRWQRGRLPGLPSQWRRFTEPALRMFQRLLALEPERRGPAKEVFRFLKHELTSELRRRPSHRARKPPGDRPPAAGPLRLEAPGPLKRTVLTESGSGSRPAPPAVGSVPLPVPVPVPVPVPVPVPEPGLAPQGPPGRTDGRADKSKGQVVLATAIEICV

CN1CCN(c2cnc3c(C4CCN(C(=O)c5ccc(OC(F)(F)F)cc5N)CC4)ncnc3c2)CC1 [BAY-885]
inactive: [1] 107% | [2] 113% | [3] 96% | [4] 107% | [5] 104% | [6] 96% | [7] 99%
